In PMC7490411 (Signal Transduction and Targeted Therapy, 2020):

How the values were obtained:
[1] = molecular target: T1, BLK (Homo sapiens, UniProt P51451); test: ADP-Glo biochemical kinase assay
T1 construct: purchased Invitrogen (Carlsbad, CA, USA)
Text: (§1) The biochemical tests of BMX, BLK, JAK3, TXK, HER2, HER4, ITK, EGFR, and BTK were provided by Invitrogen (Carlsbad, CA, USA).

[2] = molecular target: T2, EGFR (Homo sapiens, UniProt P00533); test: ADP-Glo biochemical kinase assay
T2 construct: purchased Invitrogen (Carlsbad, CA, USA)
Text: as §1

[3] = molecular target: T3, HER2 (Homo sapiens, UniProt P04626); test: ADP-Glo biochemical kinase assay
T3 construct: purchased Invitrogen (Carlsbad, CA, USA)
Text: as §1

[4] = molecular target: T4, HER4 (Homo sapiens, UniProt Q15303); test: ADP-Glo biochemical kinase assay
T4 construct: purchased Invitrogen (Carlsbad, CA, USA)
Text: as §1

[5] = molecular target: T5, ITK (Homo sapiens, UniProt Q08881); test: ADP-Glo biochemical kinase assay
T5 construct: purchased Invitrogen (Carlsbad, CA, USA)
T5 sequence (Q08881 1-620): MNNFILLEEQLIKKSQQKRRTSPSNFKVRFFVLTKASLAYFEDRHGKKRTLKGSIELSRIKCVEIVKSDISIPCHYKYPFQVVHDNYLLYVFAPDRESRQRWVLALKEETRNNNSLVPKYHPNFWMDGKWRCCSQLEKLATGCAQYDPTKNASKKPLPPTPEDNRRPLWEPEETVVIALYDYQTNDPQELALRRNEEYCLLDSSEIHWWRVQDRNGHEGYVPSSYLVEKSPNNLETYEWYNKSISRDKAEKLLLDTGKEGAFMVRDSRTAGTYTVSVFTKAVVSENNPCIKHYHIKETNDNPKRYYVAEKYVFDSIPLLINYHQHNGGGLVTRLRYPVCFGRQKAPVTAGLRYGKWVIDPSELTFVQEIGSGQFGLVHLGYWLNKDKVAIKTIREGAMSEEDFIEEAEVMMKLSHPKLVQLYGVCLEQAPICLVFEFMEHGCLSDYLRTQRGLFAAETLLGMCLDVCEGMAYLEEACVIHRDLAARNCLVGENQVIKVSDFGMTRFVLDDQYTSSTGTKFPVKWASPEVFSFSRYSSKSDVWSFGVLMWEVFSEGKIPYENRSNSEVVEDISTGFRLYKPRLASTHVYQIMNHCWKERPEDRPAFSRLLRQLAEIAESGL
Text: as §1

[6] = molecular target: T6, JAK3 (Homo sapiens, UniProt P52333); test: ADP-Glo biochemical kinase assay; settings: read-out: IC50 against JAK3
T6 construct: purchased Invitrogen (Carlsbad, CA, USA)
Text: as §1

[7] = test system: AMPK-alpha2; test: KINOMEscan; format: binding; settings: 1000 nM
[8] = molecular target: T1, BLK; test: KINOMEscan; format: binding; settings: 1000 nM
[9] = test system: CAMK2B; test: KINOMEscan; format: binding; settings: 1000 nM
[10] = test system: CDC2L1; test: KINOMEscan; format: binding; settings: 1000 nM
[11] = test system: CSNK2A1; test: KINOMEscan; format: binding; settings: 1000 nM
[12] = test system: DMPK; test: KINOMEscan; format: binding; settings: 1000 nM
[13] = test system: EGFR(G719S); test: KINOMEscan; format: binding; settings: 1000 nM
[14] = test system: EPHB2; test: KINOMEscan; format: binding; settings: 1000 nM
[15] = test system: ERK1; test: KINOMEscan; format: binding; settings: 1000 nM
[16] = test system: ERN1; test: KINOMEscan; format: binding; settings: 1000 nM
[17] = test system: IKK-beta; test: KINOMEscan; format: binding; settings: 1000 nM
[18] = test system: IKK-epsilon; test: KINOMEscan; format: binding; settings: 1000 nM
[19] = test system: KIT(V559D,T670I); test: KINOMEscan; format: binding; settings: 1000 nM
[20] = test system: MAP4K3; test: KINOMEscan; format: binding; settings: 1000 nM
[21] = test system: MAP4K4; test: KINOMEscan; format: binding; settings: 1000 nM
[22] = test system: MAPKAPK5; test: KINOMEscan; format: binding; settings: 1000 nM
[23] = test system: MLK2; test: KINOMEscan; format: binding; settings: 1000 nM
[24] = test system: MST1R; test: KINOMEscan; format: binding; settings: 1000 nM
[25] = test system: NIK; test: KINOMEscan; format: binding; settings: 1000 nM
[26] = test system: p38-beta; test: KINOMEscan; format: binding; settings: 1000 nM
[27] = test system: PIK3C2B; test: KINOMEscan; format: binding; settings: 1000 nM
[28] = test system: PIKFYVE; test: KINOMEscan; format: binding; settings: 1000 nM
[29] = test system: PKN1; test: KINOMEscan; format: binding; settings: 1000 nM
[30] = test system: RET(M918T); test: KINOMEscan; format: binding; settings: 1000 nM
[31] = test system: RIOK2; test: KINOMEscan; format: binding; settings: 1000 nM
[32] = test system: ROCK2; test: KINOMEscan; format: binding; settings: 1000 nM
[33] = test system: RSK3(Kin.Dom.2-C-terminal); test: KINOMEscan; format: binding; settings: 1000 nM
[34] = test system: TAOK1; test: KINOMEscan; format: binding; settings: 1000 nM
[35] = test system: TLK2; test: KINOMEscan; format: binding; settings: 1000 nM
[36] = test system: TNIK; test: KINOMEscan; format: binding; settings: 1000 nM
[37] = test system: TRKC; test: KINOMEscan; format: binding; settings: 1000 nM
[38] = test system: TSSK3; test: KINOMEscan; format: binding; settings: 1000 nM

T1 sequence (P51451 whole entry): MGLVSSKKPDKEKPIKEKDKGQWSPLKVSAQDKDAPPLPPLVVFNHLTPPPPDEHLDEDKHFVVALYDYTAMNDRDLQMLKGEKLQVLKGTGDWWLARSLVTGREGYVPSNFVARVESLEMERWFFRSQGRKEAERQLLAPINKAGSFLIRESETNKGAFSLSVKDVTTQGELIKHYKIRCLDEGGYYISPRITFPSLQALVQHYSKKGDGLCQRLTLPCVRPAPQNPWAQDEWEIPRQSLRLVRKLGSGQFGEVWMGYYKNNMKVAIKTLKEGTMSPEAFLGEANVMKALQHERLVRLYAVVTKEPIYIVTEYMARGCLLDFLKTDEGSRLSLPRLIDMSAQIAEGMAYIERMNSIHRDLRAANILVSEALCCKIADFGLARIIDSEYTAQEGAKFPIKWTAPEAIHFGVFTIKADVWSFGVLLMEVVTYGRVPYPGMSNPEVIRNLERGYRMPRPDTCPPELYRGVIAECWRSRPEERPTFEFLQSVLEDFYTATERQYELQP
T2 sequence (P00533 25-1210): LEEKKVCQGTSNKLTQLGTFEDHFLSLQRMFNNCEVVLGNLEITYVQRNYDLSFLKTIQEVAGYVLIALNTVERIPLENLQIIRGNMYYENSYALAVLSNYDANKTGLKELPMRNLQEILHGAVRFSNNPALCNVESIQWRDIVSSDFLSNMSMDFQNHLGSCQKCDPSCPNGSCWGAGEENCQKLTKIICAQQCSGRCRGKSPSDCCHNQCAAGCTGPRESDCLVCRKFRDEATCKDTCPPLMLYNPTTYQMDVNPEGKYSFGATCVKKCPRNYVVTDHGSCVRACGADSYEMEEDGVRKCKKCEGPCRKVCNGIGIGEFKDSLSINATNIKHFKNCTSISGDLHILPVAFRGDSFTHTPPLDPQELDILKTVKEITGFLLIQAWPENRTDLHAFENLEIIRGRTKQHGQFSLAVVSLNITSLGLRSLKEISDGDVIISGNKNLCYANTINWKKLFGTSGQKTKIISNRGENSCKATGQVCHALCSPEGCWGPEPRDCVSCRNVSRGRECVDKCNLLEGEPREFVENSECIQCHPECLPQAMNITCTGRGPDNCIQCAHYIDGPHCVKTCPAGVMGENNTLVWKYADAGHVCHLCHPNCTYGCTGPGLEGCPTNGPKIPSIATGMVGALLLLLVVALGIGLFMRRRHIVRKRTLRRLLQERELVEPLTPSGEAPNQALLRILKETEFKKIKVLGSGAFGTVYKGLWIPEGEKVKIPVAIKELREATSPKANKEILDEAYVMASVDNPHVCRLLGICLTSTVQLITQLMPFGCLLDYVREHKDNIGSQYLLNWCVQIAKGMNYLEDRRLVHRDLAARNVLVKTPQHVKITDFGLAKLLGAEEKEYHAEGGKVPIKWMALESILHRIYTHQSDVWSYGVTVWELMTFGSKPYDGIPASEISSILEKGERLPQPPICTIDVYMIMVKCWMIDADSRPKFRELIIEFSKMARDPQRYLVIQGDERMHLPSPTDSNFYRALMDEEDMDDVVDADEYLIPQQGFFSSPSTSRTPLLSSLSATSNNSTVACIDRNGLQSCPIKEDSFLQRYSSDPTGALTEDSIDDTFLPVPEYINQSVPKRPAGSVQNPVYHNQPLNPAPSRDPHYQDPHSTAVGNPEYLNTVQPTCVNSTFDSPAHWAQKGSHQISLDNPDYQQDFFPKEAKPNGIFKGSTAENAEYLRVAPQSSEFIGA
T3 sequence (P04626 23-1255): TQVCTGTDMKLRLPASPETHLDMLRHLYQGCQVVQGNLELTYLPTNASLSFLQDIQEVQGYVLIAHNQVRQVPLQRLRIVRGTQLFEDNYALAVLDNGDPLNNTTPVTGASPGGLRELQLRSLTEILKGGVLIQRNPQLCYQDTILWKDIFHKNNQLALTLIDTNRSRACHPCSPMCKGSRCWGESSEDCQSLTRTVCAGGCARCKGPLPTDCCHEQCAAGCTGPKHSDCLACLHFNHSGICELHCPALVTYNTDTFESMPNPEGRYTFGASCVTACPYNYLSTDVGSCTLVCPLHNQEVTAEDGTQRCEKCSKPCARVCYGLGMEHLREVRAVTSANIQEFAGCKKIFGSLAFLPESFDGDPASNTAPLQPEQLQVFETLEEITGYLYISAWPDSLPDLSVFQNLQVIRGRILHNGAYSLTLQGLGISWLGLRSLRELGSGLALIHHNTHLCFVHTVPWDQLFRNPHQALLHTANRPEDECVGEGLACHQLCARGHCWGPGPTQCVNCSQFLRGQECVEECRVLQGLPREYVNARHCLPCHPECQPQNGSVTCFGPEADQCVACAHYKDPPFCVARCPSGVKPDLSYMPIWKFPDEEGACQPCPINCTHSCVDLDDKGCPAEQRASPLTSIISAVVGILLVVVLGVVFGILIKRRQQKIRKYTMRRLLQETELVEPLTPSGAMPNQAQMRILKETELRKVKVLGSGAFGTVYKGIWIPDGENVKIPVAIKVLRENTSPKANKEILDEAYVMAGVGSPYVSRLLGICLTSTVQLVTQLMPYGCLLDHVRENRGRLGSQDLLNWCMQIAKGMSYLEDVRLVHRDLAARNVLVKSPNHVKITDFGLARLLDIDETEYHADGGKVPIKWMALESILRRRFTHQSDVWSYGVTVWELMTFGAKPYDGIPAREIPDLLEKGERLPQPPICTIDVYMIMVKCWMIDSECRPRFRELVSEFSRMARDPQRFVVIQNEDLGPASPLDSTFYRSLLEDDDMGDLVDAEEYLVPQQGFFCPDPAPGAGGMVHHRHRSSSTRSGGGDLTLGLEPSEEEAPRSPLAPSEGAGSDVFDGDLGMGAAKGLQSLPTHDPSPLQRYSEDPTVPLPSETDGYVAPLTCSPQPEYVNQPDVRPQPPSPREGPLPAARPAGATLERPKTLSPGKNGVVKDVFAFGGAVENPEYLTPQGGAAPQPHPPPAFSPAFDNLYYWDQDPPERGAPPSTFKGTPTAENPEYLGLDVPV
T4 sequence (Q15303 26-1308): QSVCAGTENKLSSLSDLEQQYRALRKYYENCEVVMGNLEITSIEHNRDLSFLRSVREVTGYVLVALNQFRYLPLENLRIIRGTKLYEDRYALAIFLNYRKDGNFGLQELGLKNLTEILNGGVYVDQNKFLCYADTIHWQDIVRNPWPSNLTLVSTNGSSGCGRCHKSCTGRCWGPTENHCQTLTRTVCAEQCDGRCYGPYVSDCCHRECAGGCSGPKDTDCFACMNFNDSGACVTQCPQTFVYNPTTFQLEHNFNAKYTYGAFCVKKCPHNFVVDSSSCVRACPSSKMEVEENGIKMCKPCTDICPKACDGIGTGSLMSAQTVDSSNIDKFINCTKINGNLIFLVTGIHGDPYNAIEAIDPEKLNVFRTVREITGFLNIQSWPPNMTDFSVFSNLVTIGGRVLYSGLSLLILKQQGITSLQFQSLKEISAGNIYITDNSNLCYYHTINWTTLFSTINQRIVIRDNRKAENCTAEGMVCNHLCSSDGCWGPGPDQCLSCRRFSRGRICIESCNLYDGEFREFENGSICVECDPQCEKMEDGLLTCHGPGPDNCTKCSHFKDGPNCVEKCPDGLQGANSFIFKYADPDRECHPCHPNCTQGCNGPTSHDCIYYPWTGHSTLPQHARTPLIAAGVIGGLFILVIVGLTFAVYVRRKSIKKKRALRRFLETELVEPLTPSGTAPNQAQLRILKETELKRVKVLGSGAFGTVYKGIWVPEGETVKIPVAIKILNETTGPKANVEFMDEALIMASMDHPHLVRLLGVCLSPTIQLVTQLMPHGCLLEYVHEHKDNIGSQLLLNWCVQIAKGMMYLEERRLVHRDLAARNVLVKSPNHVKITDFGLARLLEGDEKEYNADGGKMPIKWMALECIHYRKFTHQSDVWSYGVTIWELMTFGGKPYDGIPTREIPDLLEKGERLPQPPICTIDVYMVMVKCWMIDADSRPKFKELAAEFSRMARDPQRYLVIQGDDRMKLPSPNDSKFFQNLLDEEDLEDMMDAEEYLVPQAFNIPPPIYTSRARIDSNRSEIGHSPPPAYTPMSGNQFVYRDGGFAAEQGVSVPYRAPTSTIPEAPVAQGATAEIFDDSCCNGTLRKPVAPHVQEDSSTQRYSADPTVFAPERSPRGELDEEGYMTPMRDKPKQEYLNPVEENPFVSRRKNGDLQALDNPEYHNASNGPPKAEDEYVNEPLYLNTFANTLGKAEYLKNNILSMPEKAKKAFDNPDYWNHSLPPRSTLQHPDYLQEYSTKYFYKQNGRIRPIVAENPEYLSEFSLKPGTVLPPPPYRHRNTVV

C=CC(=O)Nc1cc(Nc2cc(-c3cccc(NC(=O)c4cc5c(s4)CCCC5)c3C)cn(C)c2=O)ccc1N1CCN(CC)CC1 [CHMFL-BTK-85]
IC50 ([1]; read-out: IC50 against BLK): > 10 µM
selectivity over BLK ([1]; vs BTK): more than 1000 fold
IC50 ([2]; read-out: IC50 against EGFR): > 10 µM
selectivity over EGFR ([2]; vs BTK): more than 1000 fold
IC50 ([3]; read-out: IC50 against HER2): > 10 µM
selectivity over HER2 ([3]; vs BTK): more than 1000 fold
IC50 ([4]; read-out: IC50 against HER4): > 10 µM
selectivity over HER4 ([4]; vs BTK): more than 1000 fold
IC50 ([5]; read-out: IC50 against ITK): > 10 µM
selectivity over ITK ([5]; vs BTK): more than 1000 fold
IC50 [6]: 2.72 ± 0.045 µM
Percent Control [7]: 89%
percent of control kinase binding at 1 µM [8]: 57%
Percent Control [9]: 100%
Percent Control [10]: 100%
Percent Control [11]: 94%
Percent Control [12]: 92%
Percent Control [13]: 88%
Percent Control [14]: 84%
Percent Control [15]: 93%
Percent Control [16]: 100%
Percent Control [17]: 100%
Percent Control [18]: 53%
Percent Control [19]: 100%
Percent Control [20]: 97%
Percent Control [21]: 90%
Percent Control [22]: 100%
Percent Control [23]: 90%
Percent Control [24]: 98%
Percent Control [25]: 100%
Percent Control [26]: 89%
Percent Control [27]: 92%
Percent Control [28]: 78%
Percent Control [29]: 70%
Percent Control [30]: 78%
Percent Control [31]: 100%
Percent Control [32]: 100%
Percent Control [33]: 79%
Percent Control [34]: 94%
Percent Control [35]: 100%
Percent Control [36]: 99%
Percent Control [37]: 100%
Percent Control [38]: 100%
